Assay results reported in US10633375B2, “Oxopicolinamide derivative, preparation method therefor and pharmaceutical use thereof” (Jiangsu Hengrui Medicine Co., Ltd., priority 2016, dated 2020).

The compounds below were run against Coagulation Factor XIa protease (Homo sapiens (Human), UniProt P03951) (assay: Inhibition of Factor XIa detected by absorption photometry). Settings: absorbance at 405 nm, 10 minutes at 37° C.
Type: biochemical
Description: Test Example 1: Biological Activity of the Compounds of the Present Invention on
The Inhibition of Factor XIa Detected by Absorption Photometry
1. Experimental Materials
Enzyme: Coagulation Factor XIa protease (Abcam, Art. No ab62411)
Substrate: Coagulation Factor XIa specific substrate (HYPHEN1310 med, Art. No. Biophen cs-21(66))
2. Experimental Procedure
20 mM of test compound dissolved in 100% DMSO was diluted to 200, 20, 2, 0.2, 0.02, 0.002 μM with 100% DMSO; 1 μl of the compound was added to each well in a 384-well plate, blank and control wells were replaced with DMSO. The plate was centrifuged to remove the compound to the bottom. 10 μl (2.5 μg/ml) of FXIa enzyme solution was added to each well, and 10 μl of buffer was added to the blank well. The plate was centrifuged to remove the enzyme solution to the bottom.
Finally, 10 μl of 2 mM substrate were added to each well, and the plate was centrifuged to remove the substrate solution to the bottom.
The plate was incubated for 10 minutes at 37° C.; and then the absorbance was measured at 405 nm.

Sequence of Coagulation Factor XIa protease (P03951 388-625): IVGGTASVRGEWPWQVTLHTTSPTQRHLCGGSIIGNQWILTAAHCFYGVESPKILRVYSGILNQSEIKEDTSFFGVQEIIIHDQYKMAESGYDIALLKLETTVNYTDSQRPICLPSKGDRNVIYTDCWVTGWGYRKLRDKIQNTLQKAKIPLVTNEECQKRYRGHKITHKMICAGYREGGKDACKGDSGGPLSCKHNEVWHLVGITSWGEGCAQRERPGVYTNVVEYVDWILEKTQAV
Sequence of Coagulation Factor XIa protease (P03951 19-387 partner): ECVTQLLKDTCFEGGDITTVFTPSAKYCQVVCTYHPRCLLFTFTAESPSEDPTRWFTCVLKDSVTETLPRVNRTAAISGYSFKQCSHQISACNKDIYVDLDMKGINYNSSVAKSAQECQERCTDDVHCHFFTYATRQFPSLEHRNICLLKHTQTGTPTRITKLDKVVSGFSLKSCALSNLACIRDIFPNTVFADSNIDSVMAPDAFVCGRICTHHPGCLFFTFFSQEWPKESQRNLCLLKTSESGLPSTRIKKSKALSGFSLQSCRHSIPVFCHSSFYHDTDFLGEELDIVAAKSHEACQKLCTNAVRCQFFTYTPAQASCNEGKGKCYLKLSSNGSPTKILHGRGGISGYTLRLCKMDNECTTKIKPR

Row | IC50 | SMILES
1 | 0.1 µM | COc1cn(C(Cc2ccc(NC(=O)C3CC3)cc2)C(=O)Nc2ccc(C(=O)O)cc2)c(=O)cc1-c1cc(Cl)ccc1C(C)=O (stereo not drawn) [Example 16, 4-(2-(4-(2-acetyl-5-chlorophenyl)-5-methoxy-2-oxopyridin-1(2H)-yl)-3-(4-(cyclopropanecarboxamido)phenyl)propanamido)benzoic acid]
2 | 0.056 µM | COc1cn(C(Cc2ccccc2)C(=O)Nc2ccc3nn(C)cc3c2)c(=O)cc1-c1cc(Cl)ccc1C(C)=O (stereo not drawn) [Example 18, 2-(4-(2-acetyl-5-chlorophenyl)-5-methoxy-2-oxopyridin-1(2H)-yl)-N-(2-methyl-2H-indazol-5-yl)-3-phenylpropanamide]
3 | 0.074 µM | COc1cn(C(Cc2cccc(C#N)c2)C(=O)Nc2ccc(C(=O)O)cc2)c(=O)cc1-c1cc(Cl)ccc1C(C)=O (stereo not drawn) [Example 88, 4-(2-(4-(2-acetyl-5-chlorophenyl)-5-methoxy-2-oxopyridin-1(2H)-yl)-3-(3-cyanophenyl)propanamido)benzoic acid]
4 | 0.1 µM | COc1cn(C(Cc2ccc(C#N)cc2)C(=O)Nc2ccc(C(=O)O)cc2)c(=O)cc1-c1cc(Cl)ccc1C(C)=O (stereo not drawn) [Example 90, 4-(2-(4-(2-acetyl-5-chlorophenyl)-5-methoxy-2-oxopyridin-1(2H)-yl)-3-(4-cyanophenyl)propanamido)benzoic acid]
5 | 0.069 µM | COc1cn(C(Cc2ccccc2)C(=O)Nc2ccc3nccnc3c2)c(=O)cc1-c1cc(Cl)ccc1C(C)=O (stereo not drawn) [Example 45, 2-(4-(2-acetyl-5-chlorophenyl)-5-methoxy-2-oxopyridin-1(2H)-yl)-3-phenyl-N-(quinoxalin-6-yl)propanamide]
6 | 8.92 µM | COc1cn([C@H](CC2CCC2)C(=O)Nc2ccc(C(=O)O)cc2)c(=O)cc1-c1cc(Cl)ccc1C(C)=O [Example 172, (R)-4-(2-(4-(2-acetyl-5-chlorophenyl)-5-methoxy-2-oxopyridin-1(2H)-yl)-3-cyclobutylpropanamido)benzoic acid]
7 | 0.023 µM | COc1cn([C@@H](Cc2ccn(C)n2)C(=O)Nc2ccc(C(=O)O)cc2)c(=O)cc1-c1cc(Cl)ccc1C(C)=O [Example 101, (S)-4-(2-(4-(2-acetyl-5-chlorophenyl)-5-methoxy-2-oxopyridin-1(2H)-yl)-3-(1-methyl-1H-pyrazol-3-yl)propanamido)benzoic acid]
8 | 0.043 µM | COc1cn([C@@H](CC2CC2)C(=O)Nc2ccc(C(=O)O)cc2)c(=O)cc1-c1cc(Cl)ccc1C(C)=O [Example 168, (S)-4-(2-(4-(2-acetyl-5-chlorophenyl)-5-methoxy-2-oxopyridin-1(2H)-yl)-3-cyclopropylpropanamido)benzoic acid]
9 | 0.049 µM | COc1cn(C(Cc2ccc(Cl)cc2)C(=O)Nc2ccc(C(=O)O)cc2)c(=O)cc1-c1cc(Cl)ccc1C(C)=O (stereo not drawn) [Example 69, 4-(2-(4-(2-acetyl-5-chlorophenyl)-5-methoxy-2-oxopyridin-1 (2H)-yl)-3-(4-chlorophenyl)propanamido)benzoic acid]
10 | 0.081 µM | CCCCC(C(=O)Nc1ccc(C(=O)O)cc1)n1cc(OC)c(-c2cc(Cl)ccc2C(C)=O)cc1=O (stereo not drawn) [Example 155, 4-(2-(4-(2-acetyl-5-chlorophenyl)-5-methoxy-2-oxopyridin-1(2H)-yl)hexanamido)benzoic acid]
11 | 0.037 µM | COCCC(C(=O)Nc1ccc(C(=O)O)cc1)n1cc(OC)c(-c2c(C(C)=O)ccc(Cl)c2F)cc1=O (stereo not drawn) [Example 146, 4-(2-(4-(6-acetyl-3-chloro-2-fluorophenyl)-5-methoxy-2-oxopyridin-1(21)-yl)-4-methoxvbutanamido)benzoic acid]
12 | 0.071 µM | COc1cn(C(Cc2ccccc2)C(=O)Nc2ccc3cnccc3c2)c(=O)cc1-c1cc(Cl)ccc1C(C)=O (stereo not drawn) [Example 46, 2-(4-(2-acetyl-5-chlorophenyl)-5-methoxy-2-oxopyridin-1 (2H)-yl)-N-(isoquinolin-6-yl)-3-phenylpropanamide]
13 | 0.035 µM | COc1cn(C(Cc2cccc(C)c2)C(=O)Nc2ccc(C(=O)O)cc2)c(=O)cc1-c1cc(Cl)ccc1C(C)=O (stereo not drawn) [Example 67, 4-(2-(4-(2-acetyl-5-chlorophenyl)-5-methoxy-2-oxopyridin-1(2H)-yl)-3-(m-tolyl)propan amido)benzoic acid]
14 | 0.1 µM | COc1cn(C(Cc2ccc(NC(C)=O)cc2)C(=O)Nc2ccc(C(=O)O)cc2)c(=O)cc1-c1cc(Cl)ccc1C(C)=O (stereo not drawn) [Example 75, 4-(3-(4-acetamidophenyl)-2-(4-(2-acetyl-5-chlorophenyl)-5-methoxy-2-oxopyridin-1(2H)-yl)propanamido)benzoic acid]
15 | 0.04 µM | COc1cn(C(Cc2ccccc2)C(=O)Nc2ccc3cn[nH]c3c2)c(=O)cc1-c1cc(Cl)ccc1C(C)=O (stereo not drawn) [Example 42, 2-(4-(2-acetyl-5-chlorophenyl)-5-methoxy-2-oxopyridin-1 (2H)-yl)-N-(1H-indazol-6-yl)-3-phenylpropanamide]
16 | 1.52 µM | CCC(=O)c1ccc(Cl)cc1-c1cc(=O)n([C@H](Cc2ccccc2)C(=O)Nc2ccc(C(N)=O)cc2)cc1OC [Example 25, (R)-4-(2-(4-(5-chloro-2-propionylphenyl)-5-methoxy-2-oxopyridin-1(2H)-yl)-3-phenylpropanamido)benzamide]
17 | 0.047 µM | COc1cn(C(Cc2ccccc2F)C(=O)Nc2ccc(C(=O)O)cc2)c(=O)cc1-c1cc(Cl)ccc1C(C)=O (stereo not drawn) [Example 68, 4-(2-(4-(2-acetyl-5-chlorophenyl)-5-methoxy-2-oxopyridin-1(2H)-yl)-3-(2-fluorophenyl)propanamido)benzoic acid]
18 | 7.51 µM | COc1cn([C@H](Cc2ccn(C3CC3)n2)C(=O)Nc2ccc(C(=O)O)cc2)c(=O)cc1-c1cc(Cl)ccc1C(C)=O [Example 95, (R)-4-(2-(4-(2-acetyl-5-chlorophenyl)-5-methoxy-2-oxopyridin-(2H)-yl)-3-(1-cyclopropyl-1H-pyrazol-3-yl)propanamido)benzoic acid]
19 | 0.045 µM | COc1cn(C(Cc2ccccn2)C(=O)Nc2ccc(C(=O)O)cc2)c(=O)cc1-c1cc(Cl)ccc1C(C)=O (stereo not drawn) [Example 79, 4-(2-(4-(2-acetyl-5-chlorophenyl)-5-methoxy-2-oxopyridin-1(2H)-yl)-3-(pyridin-2-yl)propanamido)benzoic acid]
20 | 0.1 µM | COc1cn(C(CC2CC(C)(C)C2)C(=O)Nc2ccc(C(=O)O)cc2)c(=O)cc1-c1cc(Cl)ccc1C(C)=O (stereo not drawn) [Example 173, 4-(2-(4-(2-acetyl-5-chlorophenyl)-5-methoxy-2-oxopyridin-1(2H)-yl)-3-(3,3-dimethylcyclobutyl)propanamido)benzoic acid]
21 | 0.033 µM | COc1cn(C(CC2CCC2)C(=O)Nc2ccc(C(=O)O)cc2)c(=O)cc1-c1c(C(C)=O)ccc(Cl)c1F (stereo not drawn) [Example 159, 4-(2-(4-(6-acetyl-3-chloro-2-fluorophenyl)-5-methoxy-2-oxopyridin-1(2H)-yl)-3-cyclobutylpropanamido)benzoic acid]
22 | 0.055 µM | COc1cn(C(Cc2ccc(F)cc2)C(=O)Nc2ccc(C(=O)O)cc2)c(=O)cc1-c1cc(Cl)ccc1C(C)=O (stereo not drawn) [Example 63, 4-(2-(4-(2-acetyl-5-chlorophenyl)-5-methoxy-2-oxopyridin-1(2H)-yl)-3-(4-fluorophenyl)propanamido)benzoic acid]
23 | 13.1 µM | COc1cn([C@@H](CC2CCC2)C(=O)Nc2ccc(C(=O)O)cc2)c(=O)cc1-c1c(C(C)=O)ccc(Cl)c1F [Example 161, (S)-4-(2-(4-(6-acetyl-3-chloro-2-fluorophenyl)-5-methoxy-2-oxopyridin-1(2H)-yl)-3-cyclobutylpropanamido)benzoic acid]
24 | 0.024 µM | CCC(=O)c1ccc(Cl)cc1-c1cc(=O)n(C(Cc2ccccc2)C(=O)Nc2ccc3ncncc3c2)cc1OC (stereo not drawn) [Example 23, 2-(4-(5-chloro-2-propionylphenyl)-5-methoxy-2-oxopyridin-1(2H)-yl)-3-phenyl-N-(quinazolin-6-yl)propanamide]
25 | 0.058 µM | COc1cn(C(Cc2ccccc2Br)C(=O)Nc2ccc(C(=O)O)cc2)c(=O)cc1-c1cc(Cl)ccc1C(C)=O (stereo not drawn) [Example 64, 4-(2-(4-(2-acetyl-5-chlorophenyl)-5-methoxy-2-oxopyridin-1 (2H)-yl)-3-(2-bromophenyl)propanamido)benzoic acid]

Row | SMILES | IC50
26 | CCC(=O)c1ccc(Cl)cc1-c1cc(=O)n(C(CCOC(C)(C)C)C(=O)Nc2ccc3nc(C)c(C)nc3c2)cc1OC (stereo not drawn) [Example 124, 4-(tert-butoxy)-2-(4-(5-chloro-2-propionylphenyl)-5-methoxy-2-oxopyridin-(2H)-yl)-N-(2,3-dimethylquinoxalin-6-yl)butanamide] | 0.1 µM
27 | COc1cn(C(CCOC(C)(C)C)C(=O)Nc2ccc(C(=O)O)cc2)c(=O)cc1-c1c(C(C)=O)ccc(Cl)c1F (stereo not drawn) [Example 120, 44-(2-(4-(6-acetyl-3-chloro-2-fluorophenyl)-5-methoxy-2-oxopyridin-1(2H)-yl)-4-(tert-butoxy)butanamido)benzoic acid] | 0.049 µM
28 | CCC(=O)c1ccc(Cl)cc1-c1cc(=O)n(C(CCOC(C)(C)C)C(=O)Nc2ccc3ncncc3c2)cc1OC (stereo not drawn) [Example 121, 4-(tert-butoxy)-2-(4-(5-chloro-2-propionylphenyl)-5-methoxy-2-oxopyridin-1(2H)-yl)-N-(quinazolin-6-yl)butanamide] | 0.067 µM
29 | CCC(=O)c1ccc(Cl)cc1-c1cc(=O)n(C(CCOC(C)(C)C)C(=O)Nc2ccc3nn(C)cc3c2)cc1OC (stereo not drawn) [Example 141] | 0.066 µM
30 | CCC(=O)c1ccc(Cl)cc1-c1cc(=O)n(C(CCOC(C)(C)C)C(=O)Nc2ccc3nccnc3c2)cc1OC (stereo not drawn) [Example 113, 4-(tert-butoxy)-2-(4-(5-chloro-2-propionylphenyl)-5-methoxy-2-oxopyridin-(2H)-yl)-N-(quinoxalin-6-yl)butanamide] | 0.033 µM
